Test [1] has as its system human epidermal keratinocytes (HEKa). Kind of test: In vitro cell adhesion of keratinocytes to peptide-coated microwells (calcein fluorescence). The test is classed as cell-based. The conditions noted are these: for cell adhesion of keratinocytes: HEKa, peptide-coated microwells 0.5-250 μg/ml, 4 concentrations, 2 hours. How it is done:
1-Y and the comparative evaluation between them.
The cell cultures used in the following example are human epidermal keratinocytes (HEKa) in the presence of specific growth factors of keratinocytes.
First, 96 microwells are placed in a plate, they are coated with 50 μL of a peptide of general formula X-SEQ ID NO.1-Y (0.5-250 μg/ml per microwell) in distilled water and dried overnight at room temperature.
On the other hand, control assays are carried out with microwells coated with 40 μM of BSA (bovine serum albumin) so as to evaluate non-specific cell adhesion.
All the microwells have been washed with 200 μL of PBS (phosphate buffered saline) and blocked for 1 hour with 1% BSA in PBS at 37° C.
Trypsin was added to human cutaneous keratinocytes, and they were marked for 30 minutes at 37° C. in calcein-AM at a concentration of 5 μM and they were finally washed three times in Epilife® medium.
The marked cells (4.5×10^4/microwell) were added to the plate previously coated with the X-SEQ ID No. 1-Y peptide and were incubated for 2 hours at 37° C. in an atmosphere humidified with 5% CO2.
The cell adhesion was assessed by the measurement of calcein fluorescence before and after the washing.
The percentage of cell adhesion was determined by dividing the fluorescence of adhered cells by the total fluorescence of cells added to each microwell.
The cell adhesion promoted by the X-SEQ ID No. 1-Y peptides was calculated with respect to the non-specific adhesion of the cells to BSA.

The test system of a further test is α6 integrin. Kind of test: Immunostaining of α6 integrin expression in human fibroblasts and keratinocytes. It counts as cell-based. From the text:
(§1) Immunostaining assays have been carried out in human fibroblasts and keratinocytes in order to determine if SEQ ID No. 2 has the ability to enhance the expression of α6 integrin and laminin V (FIGS. 2, 3, 4, and 5).
(§2) The assay uses a primary (monoclonal) antibody binding to the protein which is intended to be detected (integrin or laminin), and a secondary (polyclonal) antibody binding to the complex between the protein and the primary antibody. The secondary antibody is coupled to a fluorescent compound (FITC-Fluorescein Isothiocyanate).
(§3) FITC is illuminated with filtered light at 495 nm (absorption wavelength) and the light emitted by the dye is detected at 528 nm (emission wavelength).

A further test concerns laminin V. The test can be described thus: Immunostaining of laminin V expression in human fibroblasts and keratinocytes. The test is classed as cell-based. Particulars: human fibroblasts, immunofluorescence, vs control without peptide.
Excerpt: as §1, §2, §3

Another test deals with beta 1 integrin. Kind of test: Immunostaining, production of beta 1 integrin. It counts as cell-based, human.
A further test relates to human fibroblasts. The test can be described thus: Cell adhesion in in vitro fibroblast culture. It counts as cell-based. Particulars: vs untreated. From the text: The adhesion process at a cellular level has been determined by means of a in vitro fibroblast culture in the second embodiment assay.
FIGS. 6 and 7 show a uniform coating of the assay microwell and the growth and distribution of the fibroblasts that are more related with cell adhesion than with cell proliferation.

Entries after “also recorded” stand apart in the source; their conditions may differ. No end group written: not given here. *: point of attachment. Palmitoyl = CCCCCCCCCCCCCCCC(=O)*

Take “Pal-SEQ ID No. 1: X-SEQ ID No. 1-Y peptide where X is the palmitoyl radical (Palmitoyl-IKVAV; listed as Homo sapiens)”: the “cell adhesion of keratinocytes” value in test [1] is recorded as “Stimulation of keratinocyte adhesion”; in test [1] (listed as Pal-SEQ ID NO.1) it was “increase of cell adhesion”.

With “SEQ ID No. 1: peptide of general formula I in which X is hydrogen and Y is hydroxyl (H-IKVAV-OH; listed as Homo sapiens)”, the “cell adhesion of keratinocytes” value in test [1] is listed as “Stimulation of keratinocyte adhesion”; in test [1] (listed as SEQ ID NO. 1), “increase of cell adhesion”.

In the case of “SEQ ID No. 2-amino: variant of SEQ ID No. 2 with Y amino (SEQ ID NO. 2-NH2) (SIKVAV-NH2; listed as Homo sapiens)”, the “cell adhesion of keratinocytes” value in test [1] was “increase of cell adhesion”. Moreover, the “keratinocyte cell adhesion, SEQ ID No. 2 vs SEQ ID No. 2-amino (FIG. 10)” value in test [1] (small doses (0.5 μg/ml)) is given as “greater”.

“SEQ ID No. 2: peptide of general formula I in which X is serine and Y is hydroxyl; laminin-derived (SIKVAV-OH; listed as Homo sapiens)”: the “expression of α6 integrin” value was “increase of the expression; also recorded: significant increase” with α6 integrin (human fibroblasts, immunofluorescence, vs control without peptide); “stimulation of the expression” in the test with α6 integrin (human fibroblasts, immunofluorescence, vs control without peptide, listed as SEQ ID NO.2); “not in keratinocytes” with α6 integrin (keratinocytes, immunostaining). The “expression of laminin V” value is “increase of the expression; also recorded: significant increase” with laminin V and “stimulation of the expression” in the test with laminin V (listed as SEQ ID NO.2). Further, the “production of beta 1 integrin” value with beta 1 integrin is “No variation”. The “cell adhesion in human fibroblasts” value in the test with human fibroblasts was “promoting cell adhesion and migration”. In addition, the figures for the “cell adhesion of keratinocytes” value in test [1], in test [1] (listed as SEQ ID NO. 2) and in test [1] (listed as SEQ ID NO.2) were “Stimulation of keratinocyte adhesion”, “increase of cell adhesion” and “increase of cell adhesion”, respectively. The “keratinocyte cell adhesion, comparison between peptides (FIG. 9)” value in test [1] (extrapolated results of FIG. 9, SEQ ID No. 2 vs SEQ ID No. 1 vs Pal-SEQ ID No. 1) is “greater adhesion”. Besides, in test [1] (larger doses), the “keratinocyte cell adhesion, SEQ ID No. 2 vs SEQ ID No. 2-amino (FIG. 10)” value is on record as “greater adhesion”.

Source of the values: US7943156B2, “Use of peptides of general formula I X-SEQ ID No.1-Y in the preparation of cosmetic compositions which are intended to improve the firmness of the skin by increasing cell adhesion” (Lipotec, S.A., priority 2004, dated 2011).
